Publication PMC6039432, “A small-molecule inhibitor of SOD1-Derlin-1 interaction ameliorates pathology in an ALS mouse model” (Nature Communications, 2018)

Columns and labels:
[1] = molecular target: T1, SOD1-Derlin-1 complex (Flag-SOD1 / Derlin-1-HA) (Homo sapiens, UniProt P00441, G94A); test: in vitro co-immunoprecipitation of purified complex, immunoblot; assay type: biochemical
T1 construct: Flag-SOD1 G93A and Derlin-1-HA co-expressed in HEK293A; complex purified on anti-Flag beads for the in vitro assay, or assayed in cells; all tags kept; with Derlin-1
T1 sequence (P00441 2-154 G94A): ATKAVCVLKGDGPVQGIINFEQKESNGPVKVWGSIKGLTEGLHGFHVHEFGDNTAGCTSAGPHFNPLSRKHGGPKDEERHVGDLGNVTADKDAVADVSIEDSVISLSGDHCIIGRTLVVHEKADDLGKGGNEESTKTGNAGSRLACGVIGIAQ
T1 sequence (Q9BUN8 2-251 partner): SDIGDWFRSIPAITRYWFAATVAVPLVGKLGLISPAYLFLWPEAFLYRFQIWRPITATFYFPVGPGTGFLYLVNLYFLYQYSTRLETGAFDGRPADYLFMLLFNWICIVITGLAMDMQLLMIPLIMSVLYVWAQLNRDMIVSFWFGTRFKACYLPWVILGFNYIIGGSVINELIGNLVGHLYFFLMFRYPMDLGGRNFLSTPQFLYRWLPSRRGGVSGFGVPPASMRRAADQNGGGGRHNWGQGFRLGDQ

[2] = molecular target: T2, SOD1 (GST-SOD1 / Flag-SOD1; WT or G93A) (Homo sapiens, UniProt P00441, G94A); test: fluorescence polarization (intrinsic fluorescence of compound); assay type: binding
T2 construct: full length; GST fusion from pGEX-6P-1 in E. coli BL21, eluted with glutathione (tag apparently kept), loaded with CuSO4 and ZnCl2 (described for activity assay); Flag-tagged in HEK293A for pull-down
T2 sequence (P00441 2-154 G94A): as the sequence (P00441 2-154 G94A) above

| IC50 [1] | Kd [2] | Compound |
| --- | --- | --- |
| 6.2 µM |  | Nc1c(C(=O)Nc2ccc(Cl)cc2Cl)sc2nc(-c3cccnc3)ccc12 [#56-26] |
| 23.3 µM |  | Nc1c(C(=O)Nc2ccc3c(c2)OCO3)sc2nc(-c3cccnc3)ccc12 [#56] |
| 7.11 µM | 81.1 µM | Nc1c(C(=O)Nc2ccc(Br)cc2Br)sc2nc(-c3cccnc3)ccc12 [#56-20] |
